This experiment deals with endogenous target monocytes in human PBMC. Nature of the experiment: PBMC ex vivo monocyte depletion flow cytometry assay (Example 200). The experiment is classed as cell-based. The note with it: with anti-cotinine antibody (SEQ ID NO: 11/12), 18-24 hours, EC50 in molar, read-out: Ex Vivo Depletion Assay pEC50 (converted). The protocol:
A human PBMC (peripheral blood mononuclear cells) monocyte depletion flow cytometry assay was developed to screen compounds in a 384-well plate format. This assay incorporated endogenous natural killer cells to deplete endogenous target monocytes.
To screen compounds in the human PBMC monocyte depletion flow cytometry assay, 11-point dose-response curves were made from 1 mM stocks in neat DMSO by serially diluting an ARM compound of Formula (I) four-fold into a 384-well plate row-wise. These serially diluted compounds were then stamped into a flat bottom polypropylene 384-well plate (Greiner Bio-One) at 100 nL/well. Fifty microliters of 30 μg/mL anti-cotinine antibody having a heavy chain sequence of SEQ ID NO: 11 and a light chain sequence of SEQ ID NO: 12 (rabbit variable region with human IgG1 Fc domain containing a DE mutation (S239D/1332E)) that had been diluted in assay medium (RPMI 1640 (Gibco) containing 10% fetal bovine serum (Gibco), 1% Glutamax (Gibco) and 1% sodium pyruvate (Corning) was added to the wells of the plate. The plate was centrifuged for 1 min at 500 rpm (revolutions per minute) and then shaken for 5 min at room temperature. The plate was incubated for 15 minutes at 37° C./5% CO2.
Frozen PBMC cells (HemaCare BioResearch) were thawed and centrifuged at 1,200 rpm for 4 minutes. The cells were diluted to a cell density of 2×10^6 cells/mL in assay medium. Fifty microliters of the diluted cells were added to the wells of the plate. The plate was centrifuged for 1 min at 500 rpm and incubated for 18-24 hours at 37° C./5% CO2.
After 18-24 hours incubation, 2 μL of 6.25 μg human FC block (BD Pharmingen) that was diluted in assay medium was added to the wells of the plate. The plate was centrifuged for 1 minute at 500 rpm and then incubated at room temperature for 15 minutes. Five microliters of 750 nM Helix NP NIR (Biolegend) that had been diluted in assay medium was added to the wells of the plate. Nine microliters of antibody cocktail containing 1/5 diluted fluorescein isothiocyanate (FITC) labeled anti-CD45 antibody (Beckman Coulter), PC7 labeled anti-CD14 antibody (Beckman Coulter) and phyocoerythrin (PE) anti-CD4 antibody (Beckman Coulter) was then added to the wells of the plate. The plate was centrifuged for 1 min at 500 rpm and incubated for 30 minutes at 4-8° C. Samples from the plate were run on BD FACS Canto II flow cytometer and data was analyzed using FlowJo software.
ARMs compounds of Formula (I) of the invention were tested for the ability to deplete monocytes in the above assay in one or more experimental runs and the results are shown in Table 3 below. Potency of the compounds of the invention is reported as a pEC50 value. The pEC50 value is the negative log of the EC50 value, wherein the EC50 value is the half maximal effective concentration measured in molar (M). For compounds tested in more than one experimental run, the pEC50 value is reported as an average or as the individual values measured
For `CC(C)N(C)[C@@H]1CC[C@H](N2CC[C@H](Nc3ncnc4ccc(C(F)(F)F)cc34)C2=O)[C@H](NC(=O)CCCNC(=O)CCCC(=O)NCCCOCCCNC(=O)C2CC(=O)N(C)C2c2cccnc2)C1` (stereo in doubt) [Example 21, N1-(4-(((1R,2S,5R)-5-(Isopropyl(methyl)amino)-2-((S)-2-oxo-3-((6-(trifluoromethyl)quinazolin-4-yl)amino)pyrrolidin-1-yl)cyclohexyl)amino)-4-oxobutyl)-N5-(3-(3-((2S,3S)-1-methyl-5-oxo-2-(pyridin-3-yl)pyrrolidine-3-carboxamido)propoxy)propyl)glutaramide], the EC50 was 0.631 nM. Take `CC(C)N(C)[C@@H]1CC[C@H](N2CC[C@H](Nc3ncnc4ccc(C(F)(F)F)cc34)C2=O)[C@H](NC(=O)C23CCC(NC(=O)CCOCCOCCOCCNC(=O)[C@H]4CC(=O)N(C)[C@@H]4c4cccnc4)(CC2)CC3)C1` [Example 25, (2S,3S)-N-(2-(2-(2-(3-((4-(((1R,2S,5R)-5-(Isopropyl(methyl)amino)-2-((S)-2-oxo-3-((6-(trifluoromethyl)quinazolin-4-yl)amino)pyrrolidin-1-yl)cyclohexyl)carbamoyl)bicyclo[2.2.2]octan-1-yl)amino)-3-oxopropoxy)ethoxy)ethoxy)ethyl)-1-methyl-5-oxo-2-(pyridin-3-yl)pyrrolidine-3-carboxamide]: the EC50 was 2 nM.

With `CC(C)N(C)[C@@H]1CC[C@H](N2CC[C@H](Nc3ncnc4ccc(C(F)(F)F)cc34)C2=O)[C@H](NC(=O)[C@H]2C[C@H](NC(=O)CCOCCNC(=O)CCOCCNC(=O)[C@@H]3CC(=O)N(C)[C@H]3c3cccnc3)C2)C1` [Example 45, (2S,3S)-N-(2-(3-((2-(3-(((1R,3r)-3-(((1R,2S,5R)-5-(Isopropyl(methyl)amino)-2-((S)-2-oxo-3-((6-(trifluoromethyl)quinazolin-4-yl)amino)pyrrolidin-1-yl)cyclohexyl)carbamoyl)cyclobutyl)amino)-3-oxopropoxy)ethyl)amino)-3-ixopropoxy)ethyl)-1-methyl-5-oxo-2-(pyridin-3-yl)pyrrolidine-3-carboxamide], the EC50 was 2 nM. The same measure for `CC(C)N(C)[C@@H]1CC[C@H](N2CC[C@H](Nc3ncnc4ccc(C(F)(F)F)cc34)C2=O)[C@H](NC(=O)CCCOC[C@H]2CC[C@H](COCCNC(=O)[C@H]3CC(=O)N(C)[C@@H]3c3cccnc3)CC2)C1` [Example 58, (2S,3S)-N-(2-(((1R,4S)-4-((4-(((1R,2S,5R)-5-(Isopropyl(methyl)amino)-2-((S)-2-oxo-3-((6-(trifluoromethyl)quinazolin-4-yl)amino)pyrrolidin-1-yl)cyclohexyl)amino)-4-oxobutoxy)methyl)cyclohexyl)methoxy)ethyl)-1-methyl-5-oxo-2-(pyridin-3-yl)pyrrolidine-3-carboxamide]: 7.94 nM; for `CC(C)N(C)[C@@H]1CC[C@H](N2CC[C@H](Nc3ncnc4ccc(C(F)(F)F)cc34)C2=O)[C@H](NC(=O)CCCOCC23CCC(COCCNC(=O)[C@H]4CC(=O)N(C)[C@@H]4c4cccnc4)(CC2)CC3)C1` [Example 59]: 1.58 nM; for `CC(C)N(C)[C@@H]1CC[C@H](N2CC[C@H](Nc3ncnc4ccc(C(F)(F)F)cc34)C2=O)[C@H](NC2CCC(C(=O)NCCOCCOCCNC(=O)[C@H]3CC(=O)N(C)[C@@H]3c3cccnc3)CC2)C1` (stereo partly drawn) [Example 68, (2S,3S)-N-(2-(2-(2-(4-(((1R,2S,5R)-5-(Isopropyl(methyl)amino)-2-((S)-2-oxo-3-((6-(trifluoromethyl)quinazolin-4-yl)amino)pyrrolidin-1-yl)cyclohexyl)amino)cyclohexane-1-carboxamido)ethoxy)ethoxy)ethyl)-1-methyl-5-oxo-2-(pyridin-3-yl)pyrrolidine-3-carboxamide]: 100000 nM. Consider `CC(C)N(C)[C@@H]1CC[C@H](N2CC[C@H](Nc3ncnc4ccc(C(F)(F)F)cc34)C2=O)[C@H](NC(=O)COCCNC(=O)CNC(=O)COCCOCCNC(=O)[C@H]2CC(=O)N(C)[C@@H]2c2cccnc2)C1` [Example 78, (2S,3S)-N-(1-(((1R,2S,5R)-5-(Isopropyl(methyl)amino)-2-((S)-2-oxo-3-((6-(trifluoromethyl)quinazolin-4-yl)amino)pyrrolidin-1-yl)cyclohexyl)amino)-1,7,10-trioxo-3,12,15-trioxa-6,9-diazaheptadecan-17-yl)-1-methyl-5-oxo-2-(pyridin-3-yl)pyrrolidine-3-carboxamide], for which the EC50 is 2.51 nM. The same measure for `CC(C)N(C)[C@@H]1CC[C@H](N2CC[C@H](Nc3ncnc4ccc(C(F)(F)F)cc34)C2=O)[C@H](NC(=O)COCC(=O)N2CCN(C(=O)N3CCN(C(=O)COCCNC(=O)[C@H]4CC(=O)N(C)[C@@H]4c4cccnc4)CC3)CC2)C1` [Example 84, (2S,3S)-N-(2-(2-(4-(4-(2-(2-(((1R,2S,5R)-5-(isopropyl(methyl)amino)-2-((S)-2-oxo-3-((6-(trifluoromethyl)quinazolin-4-yl)amino)pyrrolidin-1-yl)cyclohexyl)amino)-2-oxoethoxy)acetyl)piperazine-1-carbonyl)piperazin-1-yl)-2-oxoethoxy)ethyl)-1-methyl-5-oxo-2-(pyridin-3-yl)pyrrolidine-3-carboxamide]: 1 nM; for `CC(C)N(C)[C@@H]1CC[C@H](N2CC[C@H](Nc3ncnc4ccc(C(F)(F)F)cc34)C2=O)[C@H](NC(=O)C2CCN(C3CCN(C(=O)CCCCCNC(=O)[C@H]4CC(=O)N(C)[C@@H]4c4cccnc4)CC3)CC2)C1` [Example 87, N-((1R,2S,5R)-5-(Isopropyl(methyl)amino)-2-((S)-2-oxo-3-((6-(trifluoromethyl)quinazolin-4-yl)amino)pyrrolidin-1-yl)cyclohexyl)-1'-(6-((2S,3S)-1-methyl-5-oxo-2-(pyridin-3-yl)pyrrolidine-3-carboxamido)hexanoyl)-[1,4'-bipiperidine]-4-carboxamide]: 0.398 nM; for `CC(C)N(C)[C@@H]1CC[C@H](N2CC[C@H](Nc3ncnc4ccc(C(F)(F)F)cc34)C2=O)[C@H](NC(=O)c2cc(OCCOCCOCCOCCOCCNC(=O)[C@H]3CC(=O)N(C)[C@@H]3c3cccnc3)ccn2)C1` [Example 88, N-((1R,2S,5R)-5-(Isopropyl(methyl)amino)-2-((S)-2-oxo-3-((6-(trifluoromethyl)quinazolin-4-yl)amino)pyrrolidin-1-yl)cyclohexyl)-4-((1-((2S,3S)-1-methyl-5-oxo-2-(pyridin-3-yl)pyrrolidin-3-yl)-1-oxo-5,8,11,14-tetraoxa-2-azahexadecan-16-yl)oxy)picolinamide]: 7.94 nM. The same measure for `CC(C)N(C)[C@@H]1CC[C@H](N2CC[C@H](Nc3ncnc4ccc(C(F)(F)F)cc34)C2=O)[C@H](NC(=O)c2cc(OCCOCCOCCOCCNC(=O)[C@H]3CC(=O)N(C)[C@@H]3c3cccnc3)ccn2)C1` [Example 89, N-((1R,2S,5R)-5-(Isopropyl(methyl)amino)-2-((S)-2-oxo-3-((6-(trifluoromethyl)quinazolin-4-yl)amino)pyrrolidin-1-yl)cyclohexyl)-4-((1-((2S,3S)-1-methyl-5-oxo-2-(pyridin-3-yl)pyrrolidin-3-yl)-1-oxo-5,8,11-trioxa-2-azatridecan-13-yl)oxy)picolinamide]: 25.1 nM; for `CC(C)N(C)[C@@H]1CC[C@H](N2CC[C@H](Nc3ncnc4ccc(C(F)(F)F)cc34)C2=O)[C@H](NC(=O)c2ccc(OC3CCN(CCOCCOCCNC(=O)[C@H]4CC(=O)N(C)[C@@H]4c4cccnc4)CC3)cc2)C1` [Example 91]: 0.794 nM; for `CC(C)N(C)[C@@H]1CC[C@H](N2CC[C@H](Nc3ncnc4ccc(C(F)(F)F)cc34)C2=O)[C@H](NC(=O)c2cnn(C3CCN(CCOCCOCCNC(=O)[C@H]4CC(=O)N(C)[C@@H]4c4cccnc4)CC3)c2)C1` [Example 92, N-((1R,2S,5R)-5-(Isopropyl(methyl)amino)-2-((S)-2-oxo-3-((6-(trifluoromethyl)quinazolin-4-yl)amino)pyrrolidin-1-yl)cyclohexyl)-1-(1-(2-(2-(2-((2S,3S)-1-methyl-5-oxo-2-(pyridin-3-yl)pyrrolidine-3-carboxamido)ethoxy)ethoxy)ethyl)piperidin-4-yl)-1H-pyrazole-4-carboxamide]: 25.1 nM.

Values taken from US12521393B2, “Cytotoxicity targeting chimeras for CCR2-expressing cells” (GLAXOSMITHKLINE INTELLECTUAL PROPERTY DEVELOPMENT LIMITED, priority 2021, dated 2026).
